The subject of one series is cystine transport. To be noted: cited from earlier work.
A further series deals with Tumors in mice. To be noted: with ionizing radiation and various chemotherapeutic agents; cited from earlier work.
Series [1] relates to Glutathione synthesis in tissues and cells. Particulars: in vitro or in vivo; cited from earlier work.
Series [2] concerns tissue glutathione levels. In words: Glutathione depletion in mice (tissue glutathione levels). To be noted: i.p., 2 hours after injection. The series is classed as in vivo.
Description: Tissue glutathione levels were determined as described in Griffith, O. W., Anal. Biochem. 106, 207-212, (1980).
Thirty two mice were given physiological saline, 4 mice were given 0.4 mmole/kg of L-buthionine-SR-sulfoximine, 4 mice were given 0.2 mmole/kg of L-buthionine-S-sulfoximine, 4 mice were given 0.2 mmoles/kg of L-buthionine-R-sulfoximine and 4 mice were given 0.4 mmole/kg or D-buthionine-SR-sulfoximine. All injections were given intraperitoneally. Two hours after injection, the mice were killed, and the glutathione levels in the brain, liver, pancreas, and kidney were determined.
Series [3] deals with T1, gamma-glutamylcysteine synthetase (Rattus norvegicus, UniProt P19468).
T1 sequence (P19468 1-637): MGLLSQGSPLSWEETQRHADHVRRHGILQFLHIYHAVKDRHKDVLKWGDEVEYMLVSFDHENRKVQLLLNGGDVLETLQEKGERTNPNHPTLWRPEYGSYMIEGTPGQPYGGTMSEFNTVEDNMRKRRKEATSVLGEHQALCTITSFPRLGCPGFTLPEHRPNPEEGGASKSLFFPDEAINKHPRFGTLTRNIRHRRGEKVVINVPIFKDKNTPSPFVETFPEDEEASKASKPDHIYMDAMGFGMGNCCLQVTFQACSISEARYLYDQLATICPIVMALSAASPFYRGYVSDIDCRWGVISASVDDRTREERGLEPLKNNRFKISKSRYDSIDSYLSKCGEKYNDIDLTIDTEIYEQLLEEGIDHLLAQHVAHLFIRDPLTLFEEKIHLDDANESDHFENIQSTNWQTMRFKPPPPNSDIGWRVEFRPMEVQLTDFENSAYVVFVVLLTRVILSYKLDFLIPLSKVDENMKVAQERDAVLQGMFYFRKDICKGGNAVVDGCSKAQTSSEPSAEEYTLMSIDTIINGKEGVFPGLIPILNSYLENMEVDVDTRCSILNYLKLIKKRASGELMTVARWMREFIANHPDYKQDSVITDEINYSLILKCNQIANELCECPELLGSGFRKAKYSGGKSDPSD
T1 sequence (P48508 1-274 partner): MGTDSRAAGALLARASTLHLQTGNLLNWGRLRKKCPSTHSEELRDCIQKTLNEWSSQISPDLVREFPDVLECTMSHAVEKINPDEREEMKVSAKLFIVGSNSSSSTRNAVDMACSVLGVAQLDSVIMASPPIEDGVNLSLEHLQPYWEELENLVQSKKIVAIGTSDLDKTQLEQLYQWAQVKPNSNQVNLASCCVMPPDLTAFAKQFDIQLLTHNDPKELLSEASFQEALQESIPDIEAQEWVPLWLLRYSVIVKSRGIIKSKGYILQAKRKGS
To be noted: cited from earlier work.

Data on one molecule can be found in patent US5245077A, “L-buthionine-S-sulfoximine and methods of making” (Cornell Research Foundation Inc., priority 1992, dated 1993).

As to `CCCCS(=N)(=O)CC[C@H](N)C(=O)O` (stereo partly drawn) [L-buthionine-SR-sulfoximine, L-(S-n-butyl)homocysteine-SR-sulfoximine], the “effect on cystine transport (in words)” value with cystine transport is “deleterious effect on cystine transport”. In the series on Tumors in mice, the “effect on tumors in mice (in words)” value was “become glutathione depleted and more susceptible to the cytotoxic effects of ionizing radiation and various chemotherapeutic agents”. In addition, the “glutathione synthesis in tissues and cells (in words)” value in series [1] was “Glutathione synthesis is decreased”. In addition, the “glutathione level of kidney” value in series [2] (kidney, L-SR and D-SR 0.4 mmole/kg, L-S and L-R 0.2 mmole/kg) is given as 27 % of control. The “glutathione level of liver” value in series [2] (liver, SR 0.4 mmole/kg, S 0.2 mmole/kg) is reported as 52 % of control. In addition, the “glutathione level of pancreas” value in series [2] (pancreas, SR 0.4 mmole/kg, S 0.2 mmole/kg) is recorded as “about 42 % of control”. The “inhibition of gamma-glutamylcysteine synthetase (in words)” value in series [3] was “potent and specific inhibitor of gamma-glutamylcysteine synthetase”.
